Assay results published in ChEMBL document CHEMBL1131216, “Anhydrolide macrolides. 2. Synthesis and antibacterial activity of 2,3-anhydro-6-O-methyl 11,12-carbazate erythromycin A analogues” (1998).
Values after ≈ are worked out from the molar mass of the structure shown.

Legend:
Type in all cases: functional
Haemophilus influenzae = assay: In vitro antibacterial activity of DILL strain of Gram negative bacteria Haemophilus influenzae
Streptococcus pyogenes [1] = assay: In vitro antibacterial activity of PIU2584 strain of Gram positive bacteria Streptococcus pyogenes
Streptococcus pneumoniae [2] = assay: In vitro antibacterial activity of 5649 strain of Gram positive bacteria Streptococcus pneumoniae
Streptococcus pneumoniae [3] = assay: In vitro antibacterial activity of 5979 strain of Gram positive bacteria Streptococcus pneumoniae
Streptococcus pyogenes [4] = assay: In vitro antibacterial activity of 930 strain of Gram positive bacteria Streptococcus pyogenes
Streptococcus pneumoniae [5] = assay: In vitro antibacterial activity of ATCC 6303 strain of Gram positive bacteria Streptococcus pneumoniae
Staphylococcus aureus [6] = assay: In vitro antibacterial activity of A-5278 strain of Gram positive bacteria Staphylococcus aureus
Staphylococcus aureus [7] = assay: In vitro antibacterial activity of 6538P strain of Gram positive bacteria Staphylococcus aureus
Streptococcus pyogenes [8] = assay: In vitro antibacterial activity of EES61 strain of Gram positive bacteria Streptococcus pyogenes
Staphylococcus aureus [9] = assay: In vitro antibacterial activity of A5177 strain of Gram positive bacteria Staphylococcus aureus

| Structure (SMILES) | MIC (Haemophilus influenzae) [µg/mL] | MIC (Streptococcus pyogenes [1]) [µg/mL] | MIC (Streptococcus pneumoniae [2]) [µg/mL] | MIC (Streptococcus pneumoniae [3]) [µg/mL] | MIC (Streptococcus pyogenes [4]) [µg/mL] | MIC (Streptococcus pneumoniae [5]) [µg/mL] | MIC (Staphylococcus aureus [6]) [µg/mL] | MIC (Staphylococcus aureus [7]) [µg/mL] | MIC (Streptococcus pyogenes [8]) [µg/mL] | MIC (Staphylococcus aureus [9]) [µg/mL] |
| --- | --- | --- | --- | --- | --- | --- | --- | --- | --- | --- |
| CC[C@H]1OC(=O)/C(C)=C/[C@H](C)[C@@H](O[C@@H]2O[C@H](C)C[C@H](N(C)C)[C@H]2O)[C@@](C)(OC)C[C@@H](C)C(=O)[C@H](C)[C@H]2N(NCCc3ccc(Oc4ccccc4)cc3)C(=O)O[C@]12C | > 64 | 2 (≈ 2.48 µM) | 2 (≈ 2.48 µM) | 16 (≈ 19.8 µM) | 8 (≈ 9.9 µM) | 0.25 (≈ 0.309 µM) | 25 (≈ 30.9 µM) | 1.56 (≈ 1.93 µM) | 0.25 (≈ 0.309 µM) | 1.56 (≈ 1.93 µM) |
| CC[C@H]1OC(=O)/C(C)=C/[C@H](C)[C@@H](O[C@@H]2O[C@H](C)C[C@H](N(C)C)[C@H]2O)[C@@](C)(OC)C[C@@H](C)C(=O)[C@@H](C)[C@H]2N(NCCCc3ccccc3)C(=O)O[C@]12C | > 128 | 8 (≈ 11 µM) | 8 (≈ 11 µM) | 16 (≈ 21.9 µM) | 8 (≈ 11 µM) | 2 (≈ 2.74 µM) | 25 (≈ 34.2 µM) | 12.5 (≈ 17.1 µM) | 2 (≈ 2.74 µM) | – |
| CC[C@H]1OC(=O)/C(C)=C/[C@H](C)[C@@H](O[C@@H]2O[C@H](C)C[C@H](N(C)C)[C@H]2O)[C@@](C)(OC)C[C@@H](C)C(=O)[C@H](C)[C@H]2N(NCCCc3ccccc3N)C(=O)O[C@]12C | 16 (≈ 21.5 µM) | 1 (≈ 1.34 µM) | – | > 128 | 128 (≈ 172 µM) | 0.03 (≈ 0.0403 µM) | > 100 | 0.39 (≈ 0.524 µM) | 0.06 (≈ 0.0805 µM) | 0.39 (≈ 0.524 µM) |
| CC[C@H]1OC(=O)/C(C)=C/[C@H](C)[C@@H](O[C@@H]2O[C@H](C)C[C@H](N(C)C)[C@H]2O)[C@@](C)(OC)C[C@@H](C)C(=O)[C@H](C)[C@H]2N(NCc3cc([N+](=O)[O-])ccc3O)C(=O)O[C@]12C | 4 (≈ 5.24 µM) | 0.25 (≈ 0.328 µM) | 0.25 (≈ 0.328 µM) | > 128 | > 128 | 0.03 (≈ 0.0393 µM) | > 100 | 0.1 (≈ 0.131 µM) | 0.015 (≈ 0.0197 µM) | – |
| CC[C@H]1OC(=O)/C(C)=C/[C@H](C)[C@@H](O[C@@H]2O[C@H](C)C[C@H](N(C)C)[C@H]2O)[C@@](C)(OC)C[C@@H](C)C(=O)[C@H](C)[C@H]2N(NCc3cccnc3)C(=O)O[C@]12C | 8 (≈ 11.4 µM) | 1 (≈ 1.42 µM) | 1 (≈ 1.42 µM) | > 64 | > 64 | 0.06 (≈ 0.0854 µM) | > 100 | 0.39 (≈ 0.555 µM) | 0.03 (≈ 0.0427 µM) | 0.39 (≈ 0.555 µM) |

Results, then the compound that gave them:

| MIC (Haemophilus influenzae) [µg/mL] | MIC (Streptococcus pyogenes [1]) [µg/mL] | MIC (Streptococcus pneumoniae [2]) [µg/mL] | MIC (Streptococcus pneumoniae [3]) [µg/mL] | MIC (Streptococcus pyogenes [4]) [µg/mL] | MIC (Streptococcus pneumoniae [5]) [µg/mL] | MIC (Staphylococcus aureus [6]) [µg/mL] | MIC (Staphylococcus aureus [7]) [µg/mL] | MIC (Streptococcus pyogenes [8]) [µg/mL] | MIC (Staphylococcus aureus [9]) [µg/mL] | Structure (SMILES) |
| --- | --- | --- | --- | --- | --- | --- | --- | --- | --- | --- |
| 8 (≈ 10.7 µM) | 1 (≈ 1.34 µM) | 0.5 (≈ 0.668 µM) | 64 (≈ 85.6 µM) | 64 (≈ 85.6 µM) | 0.03 (≈ 0.0401 µM) | > 100 | 0.39 (≈ 0.521 µM) | 0.03 (≈ 0.0401 µM) | – | CC[C@H]1OC(=O)/C(C)=C/[C@H](C)[C@@H](O[C@@H]2O[C@H](C)C[C@H](N(C)C)[C@H]2O)[C@@](C)(OC)C[C@@H](C)C(=O)[C@H](C)[C@H]2N(NCc3ccc(SC)cc3)C(=O)O[C@]12C |
| 2 (≈ 2.56 µM) | 0.5 (≈ 0.64 µM) | 1 (≈ 1.28 µM) | > 64 | > 64 | 0.004 (≈ 0.00512 µM) | > 100 | 0.2 (≈ 0.256 µM) | 0.004 (≈ 0.00512 µM) | 0.1 (≈ 0.128 µM) | CC[C@H]1OC(=O)/C(C)=C/[C@H](C)[C@@H](O[C@@H]2O[C@H](C)C[C@H](N(C)C)[C@H]2O)[C@@](C)(OC)C[C@@H](C)C(=O)[C@H](C)[C@H]2N(NCCCc3ccnc4ccccc34)C(=O)O[C@]12C |
| 16 (≈ 21.5 µM) | 1 (≈ 1.34 µM) | 1 (≈ 1.34 µM) | > 128 | 128 (≈ 172 µM) | 0.125 (≈ 0.168 µM) | > 100 | 0.2 (≈ 0.268 µM) | 0.125 (≈ 0.168 µM) | 0.2 (≈ 0.268 µM) | CC[C@H]1OC(=O)/C(C)=C/[C@H](C)[C@@H](O[C@@H]2O[C@H](C)C[C@H](N(C)C)[C@H]2O)[C@@](C)(OC)C[C@@H](C)C(=O)[C@H](C)[C@H]2N(NCc3ccc(N(C)C)cc3)C(=O)O[C@]12C |
| 8 (≈ 11.4 µM) | 1 (≈ 1.42 µM) | 1 (≈ 1.42 µM) | > 64 | > 64 | 0.06 (≈ 0.0855 µM) | > 100 | 0.39 (≈ 0.556 µM) | 0.03 (≈ 0.0427 µM) | 0.2 (≈ 0.285 µM) | CC[C@H]1OC(=O)/C(C)=C/[C@H](C)[C@@H](O[C@@H]2O[C@H](C)C[C@H](N(C)C)[C@H]2O)[C@@](C)(OC)C[C@@H](C)C(=O)[C@H](C)[C@H]2N(NCc3ccccc3)C(=O)O[C@]12C |
| 8 (≈ 11.4 µM) | 1 (≈ 1.42 µM) | 1 (≈ 1.42 µM) | > 128 | > 128 | 0.06 (≈ 0.0854 µM) | > 100 | 0.39 (≈ 0.555 µM) | 0.06 (≈ 0.0854 µM) | 0.39 (≈ 0.555 µM) | CC[C@H]1OC(=O)/C(C)=C/[C@H](C)[C@@H](O[C@@H]2O[C@H](C)C[C@H](N(C)C)[C@H]2O)[C@@](C)(OC)C[C@@H](C)C(=O)[C@H](C)[C@H]2N(NCc3ccccn3)C(=O)O[C@]12C |
